Results taken from patent publication US9796706B2, “Inhibitors of Jun N-terminal kinase” (IMAGO PHARMACEUTICALS, INC., priority 2009, dated 2017).

What was measured:
Format in all cases: biochemical
Conditions in all cases: procedures of Example 14 (TR-FRET)
[1] = target: JNK3 (Homo sapiens (Human), UniProt P53779); experiment: JNK3 TR-FRET kinase assay (Example 14)
In short: (§1)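 Two TR-FRET formats were used for each JNK isoform. In the direct one, preactivated aJNK phosphorylated EPIW-1 at about 1 mM final ATP (RT, 15 min). Both were EDTA-quenched and read by HTRF.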

[2] = target: JNK2 (Homo sapiens (Human), UniProt P45984); experiment: JNK2 TR-FRET kinase assay (Example 14)
Sequence of JNK2 (P45984 whole entry, species assumed): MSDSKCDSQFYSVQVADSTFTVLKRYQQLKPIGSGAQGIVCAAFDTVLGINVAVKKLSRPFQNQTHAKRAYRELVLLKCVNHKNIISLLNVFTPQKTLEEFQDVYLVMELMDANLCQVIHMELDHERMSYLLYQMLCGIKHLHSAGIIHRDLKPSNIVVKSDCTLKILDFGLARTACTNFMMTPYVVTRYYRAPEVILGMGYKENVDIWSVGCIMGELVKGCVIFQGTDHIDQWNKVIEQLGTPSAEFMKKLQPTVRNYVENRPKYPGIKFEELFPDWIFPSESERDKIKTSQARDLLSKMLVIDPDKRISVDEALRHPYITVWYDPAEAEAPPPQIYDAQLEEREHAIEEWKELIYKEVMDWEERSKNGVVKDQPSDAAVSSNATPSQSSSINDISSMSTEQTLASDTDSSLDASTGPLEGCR
In short: as §1

[3] = target: JNK1 (Homo sapiens (Human), UniProt P45983); experiment: JNK1 TR-FRET kinase assay (Example 14)
Sequence of JNK1 (P45983 other isoform, or with tags, fused parts or gaps isoform P45983-2, species assumed): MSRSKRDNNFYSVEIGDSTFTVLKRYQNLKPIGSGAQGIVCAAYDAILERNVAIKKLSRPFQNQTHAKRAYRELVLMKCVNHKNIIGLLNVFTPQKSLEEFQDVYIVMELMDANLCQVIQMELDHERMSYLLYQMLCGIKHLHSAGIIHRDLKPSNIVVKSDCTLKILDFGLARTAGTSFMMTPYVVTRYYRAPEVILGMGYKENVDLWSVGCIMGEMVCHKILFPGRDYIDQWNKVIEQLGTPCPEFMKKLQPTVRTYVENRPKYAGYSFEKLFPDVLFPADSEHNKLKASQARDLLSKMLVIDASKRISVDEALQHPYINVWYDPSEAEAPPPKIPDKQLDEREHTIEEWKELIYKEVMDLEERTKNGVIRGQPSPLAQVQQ
In short: as §1

Sequence of JNK3 (P53779 whole entry, species assumed, canonical isoform): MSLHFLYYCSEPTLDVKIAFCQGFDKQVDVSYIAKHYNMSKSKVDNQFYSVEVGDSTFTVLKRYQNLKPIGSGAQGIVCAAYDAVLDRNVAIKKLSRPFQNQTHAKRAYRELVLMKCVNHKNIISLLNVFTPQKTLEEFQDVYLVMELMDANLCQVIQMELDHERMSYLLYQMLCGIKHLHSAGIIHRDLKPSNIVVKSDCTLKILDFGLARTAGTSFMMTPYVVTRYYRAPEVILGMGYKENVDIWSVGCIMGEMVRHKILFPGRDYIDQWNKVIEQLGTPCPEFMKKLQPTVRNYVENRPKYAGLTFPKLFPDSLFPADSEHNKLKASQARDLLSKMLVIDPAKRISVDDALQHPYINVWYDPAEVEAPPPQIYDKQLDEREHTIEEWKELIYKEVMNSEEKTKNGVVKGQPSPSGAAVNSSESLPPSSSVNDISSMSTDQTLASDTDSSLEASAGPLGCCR

| IC50 [1] [nM] | IC50 [2] [nM] | IC50 [3] [nM] | Structure (SMILES) |
| --- | --- | --- | --- |
| < 100 | < 100 | < 100 | O=C(Cc1cccc2ncc(F)cc12)Nc1scc(Br)c1-c1nc[nH]n1 [N-(4-bromo-3-(1H-1,2,4-triazol-3-yl)thiophen-2-yl)-2-(3-fluoroquinolin-5-yl)acetamide] |
| 100 to 10000 | > 50000 | 100 to 10000 | COc1ccc(CC(=O)Nc2ccsc2-c2nnc(C)o2)cc1 [2-(4-methoxyphenyl)-N-(2-(5-methyl-1,3,4-oxadiazol-2-yl)thiophen-3-yl)acetamide] |
| 100 to 10000 | > 50000 | 100 to 10000 | COCn1nnnc1-c1ccsc1NC(=O)Cc1ccc(OC)cc1 [N-(3-(1-(methoxymethyl)-1H-tetrazol-5-yl)thiophen-2-yl)-2-(4-methoxyphenyl)acetamide] |
| < 100 | 100 to 10000 | < 100 | N#Cc1csc(NC(=O)Cc2cccc3ncccc23)c1-c1cnccn1 [N-(4-cyano-3-(pyrazin-2-yl)thiophen-2-yl)-2-(quinolin-5-yl)acetamide] |
| < 100 | < 100 | < 100 | N#Cc1csc(NC(=O)Cn2c(=O)ccc3cc(C(F)(F)F)ccc32)c1-c1cscn1 [N-(4-cyano-3-(thiazol-4-yl)thiophen-2-yl)-2-(2-oxo-6-(trifluoromethyl)quinolin-1(2H)-yl)acetamide] |
| < 100 | 100 to 10000 | < 100 | CCc1n[nH]c(-c2c(Cl)csc2NC(=O)CN2C(=O)CCc3ncccc32)n1 [N-(4-chloro-3-(3-ethyl-1H-1,2,4-triazol-5-yl)thiophen-2-yl)-2-(2-oxo-3,4-dihydro-1,5-naphthyridin-1(2H)-yl)acetamide] |
| < 100 | < 100 | < 100 | N#Cc1csc(NC(=O)Cn2c(=O)ccc3cc(C(F)(F)F)ccc32)c1-c1nccs1 [N-(4-cyano-3-(thiazol-2-yl)thiophen-2-yl)-2-(2-oxo-6-(trifluoromethyl)quinolin-1(2H)-yl)acetamide] |
| < 100 | < 100 | < 100 | O=C(Cn1c(=O)ccc2cnc(C(F)(F)F)cc21)Nc1scc(Br)c1-c1ncn[nH]1 [N-(4-bromo-3-(1H-1,2,4-triazol-5-yl)thiophen-2-yl)-2-(2-oxo-7-(trifluoromethyl)-1,6-naphthyridin-1(2H)-yl)acetamide] |
| < 100 | < 100 | < 100 | N#Cc1ccc2c(ccc(=O)n2CC(=O)Nc2scc(Cl)c2-c2nc[nH]n2)c1 [N-(4-chloro-3-(1H-1,2,4-triazol-3-yl)thiophen-2-yl)-2-(6-cyano-2-oxoquinolin-1(2H)-yl)acetamide] |
| 100 to 10000 | > 10000 | 100 to 10000 | COc1ccc(CC(=O)Nc2sccc2-c2nnn(C)n2)cc1 [2-(4-methoxyphenyl)-N-(3-(2-methyl-2H-tetrazol-5-yl)thiophen-2-yl)acetamide] |
| < 100 | 100 to 10000 | < 100 | O=C(Cn1c(=O)ccc2cc(C(F)(F)F)ccc21)Nc1scc(Br)c1-n1nccn1 [N-(4-bromo-3-(2H-1,2,3-triazol-2-yl)thiophen-2-yl)-2-(2-oxo-6-(trifluoromethyl)quinolin-1(2H)-yl)acetamide] |
| 100 to 10000 | 100 to 10000 | < 100 | O=C(Cn1c(=O)ccc2cnccc21)Nc1ccsc1-c1cscn1 [2-(2-oxo-1,6-naphthyridin-1(2H)-yl)-N-(2-(thiazol-4-yl)thiophen-3-yl)acetamide] |
| 100 to 10000 | 100 to 10000 | 100 to 10000 | O=C(CN1C(=O)CCc2ccccc21)Nc1ccsc1-c1cscn1 [2-(2-oxo-3,4-dihydroquinolin-1(2H)-yl)-N-(2-(thiazol-4-yl)thiophen-3-yl)acetamide] |
| < 100 | 100 to 10000 | < 100 | O=C(Cc1cccc2ccncc12)Nc1scc(Br)c1-c1ncn[nH]1 [N-(4-bromo-3-(1H-1,2,4-triazol-5-yl)thiophen-2-yl)-2-(isoquinolin-8-yl)acetamide] |
| < 100 | < 100 | < 100 | O=C(Cn1c(=O)ccc2cc(C(F)(F)F)ccc21)Nc1scc(Cl)c1-c1ncn(CCCN2CCCC2)n1 [N-(4-chloro-3-(1-(3-(pyrrolidin-1-yl)propyl)-1H-1,2,4-triazol-3-yl)thiophen-2-yl)-2-(2-oxo-6-(trifluoromethyl)quinolin-1(2H)-yl)acetamide] |
| 100 to 10000 | > 10000 | 100 to 10000 | COc1ccc(CC(=O)Nc2ccsc2-c2nc(C(F)(F)F)n[nH]2)cc1 [2-(4-methoxyphenyl)-N-(2-(3-(trifluoromethyl)-1H-1,2,4-triazol-5-yl)thiophen-3-yl)acetamide] |
| < 100 | < 100 | < 100 | O=C(Cn1c(=O)ccc2cc(C(F)(F)F)ccc21)Nc1scc(Cl)c1-c1ncn[nH]1 [N-(4-chloro-3-(1H-1,2,4-triazol-5-yl)thiophen-2-yl)-2-(2-oxo-6-(trifluoromethyl)quinolin-1(2H)-yl)acetamide] |

| IC50 [1] [nM] | IC50 [2] [nM] | IC50 [3] [nM] | Structure (SMILES) |
| --- | --- | --- | --- |
| 100 to 10000 | 100 to 10000 | 100 to 10000 | O=C(Cc1cc(C(F)(F)F)cc2ncccc12)Nc1scc(Br)c1-c1nnc[nH]1 [N-(4-bromo-3-(4H-1,2,4-triazol-3-yl)thiophen-2-yl)-2-(7-(trifluoromethyl)quinolin-5-yl)acetamide] |
| < 100 | < 100 | < 100 | O=C(Cn1c(=O)ccn2nc(C(F)(F)F)cc12)Nc1scc(Cl)c1-c1ncn[nH]1 [N-(4-chloro-3-(1H-1,2,4-triazol-5-yl)thiophen-2-yl)-2-(5-oxo-2-(trifluoromethyl)pyrazolo[1,5-a]pyrimidin-4(5H)-yl)acetamide] |
| < 100 | < 100 | < 100 | O=C(CN1C(=O)CCc2ncccc21)Nc1scc(Br)c1-c1ncn[nH]1 [N-(4-bromo-3-(1H-1,2,4-triazol-5-yl)thiophen-2-yl)-2-(2-oxo-3,4-dihydro-1,5-naphthyridin-1(2H)-yl)acetamide] |
| 100 to 10000 | 100 to 10000 | < 100 | O=C(CN1C(=O)C(F)(F)c2ccccc21)Nc1scc(Br)c1-c1nnc[nH]1 [N-(4-bromo-3-(4H-1,2,4-triazol-3-yl)thiophen-2-yl)-2-(3,3-difluoro-2-oxoindolin-1-yl)acetamide] |
| 100 to 10000 | 100 to 10000 | 100 to 10000 | Cc1n[nH]c(-c2sccc2NC(=O)Cc2cccc3ccccc23)n1 [N-(2-(3-methyl-1H-1,2,4-triazol-5-yl)thiophen-3-yl)-2-(naphthalen-1-yl)acetamide] |
| 100 to 10000 | 100 to 10000 | < 100 | CC(C)c1n[nH]c(-c2c(Cl)csc2NC(=O)CN2C(=O)CCc3ncccc32)n1 [N-(4-chloro-3-(3-isopropyl-1H-1,2,4-triazol-5-yl)thiophen-2-yl)-2-(2-oxo-3,4-dihydro-1,5-naphthyridin-1(2H)-yl)acetamide] |
| > 10000 | > 50000 | > 10000 | COc1ccc(CC(=O)Nc2ccsc2-c2c[nH]c(C)n2)cc1 [2-(4-methoxyphenyl)-N-(2-(2-methyl-1H-imidazol-4-yl)thiophen-3-yl)acetamide] |
| < 100 | 100 to 10000 | < 100 | O=C(Cc1cncc2ccccc12)Nc1scc(Br)c1-c1nnc[nH]1 [N-(4-bromo-3-(4H-1,2,4-triazol-3-yl)thiophen-2-yl)-2-(isoquinolin-4-yl)acetamide] |
| > 10000 | > 50000 | > 10000 | COc1ccc(CC(=O)Nc2ccsc2-n2cccn2)cc1 [N-(2-(1H-pyrazol-1-yl)thiophen-3-yl)-2-(4-methoxyphenyl)-acetamide] |
| < 100 | < 100 | < 100 | Cn1cnc(-c2c(C#N)csc2NC(=O)Cc2cccc3ncccc23)n1 [N-(4-cyano-3-(1-methyl-1H-1,2,4-triazol-3-yl)thiophen-2-yl)-2-(quinolin-5-yl)acetamide] |
| 100 to 10000 | 100 to 10000 | < 100 | O=C(Cn1c(=O)ccc2cc(F)c(F)cc21)Nc1sccc1-c1ncon1 [N-(3-(1,2,4-oxadiazol-3-yl)thiophen-2-yl)-2-(6,7-difluoro-2-oxoquinolin-1(2H)-yl)acetamide] |
| 100 to 10000 | > 10000 | 100 to 10000 | Cc1nnc(-c2sccc2NC(=O)Cc2cccc3ccccc23)o1 [N-(2-(5-methyl-1,3,4-oxadiazol-2-yl)thiophen-3-yl)-2-(naphthalen-1-yl)acetamide] |
| 100 to 10000 | 100 to 10000 | < 100 | Cc1cn2c(CC(=O)Nc3scc(Br)c3-c3ncn[nH]3)csc2n1 [N-(4-bromo-3-(1H-1,2,4-triazol-5-yl)thiophen-2-yl)-2-(6-methylimidazo[2,1-b]thiazol-3-yl)acetamide] |
| 100 to 10000 | > 10000 | 100 to 10000 | O=C(Cc1cccc2ccccc12)Nc1ccsc1-c1nnco1 [N-(2-(1,3,4-oxadiazol-2-yl)thiophen-3-yl)-2-(naphthalen-1-yl)acetamide] |
| < 100 | < 100 | < 100 | O=C(Cn1c(=O)ccc2cc(C(F)(F)F)ccc21)Nc1scc(Cl)c1-c1ncn(CCCN2CCOCC2)n1 [N-(4-chloro-3-(1-(3-morpholinopropyl)-1H-1,2,4-triazol-3-yl)thiophen-2-yl)-2-(2-oxo-6-(trifluoromethyl)quinolin-1(2H)-yl)acetamide] |
| < 100 | < 100 | < 100 | Cn1cnc(-c2c(Cl)csc2NC(=O)Cn2c(=O)ccn3nccc23)n1 [N-(4-chloro-3-(1-methyl-1H-1,2,4-triazol-3-yl)thiophen-2-yl)-2-(5-oxopyrazolo[1,5-a]pyrimidin-4(5H)-yl)acetamide] |
| 100 to 10000 | 100 to 10000 | 100 to 10000 | O=C(Cc1cccc2cnccc12)Nc1ccsc1-c1ncco1 [2-(isoquinolin-5-yl)-N-(2-(oxazol-2-yl)thiophen-3-yl)acetamide] |
